Key:
E. coli = assay: toxicity of bacterial expression; type: cell-based; settings: data not shown
[1] = system: mitochondria membrane isolated from BMK-D3 cells; assay: in vitro cytochrome c release from isolated mitochondria; type: biochemical, mouse; settings: synthetic peptide 100 μM, 1 hour at 37° C.
Protocol: Mitochondria-free cytosol was prepared as previously described (Ko et al., 2003a). Briefly, 24 hours after transfection, HEK293 cells were collected by scraping, washed twice with ice-cold PBS, suspended in […] extraction buffer (50 mM PIPES-KOH, pH 7.4, 200 mM mannitol, 70 mM sucrose, 50 mM KCl, 5 mM EGTA, 2 mM MgCl2, 1 mM dithiothreitol and protease inhibitors), and incubated on ice for 30 minutes. Cells were lysed by Dounce homogenization and homogenates were centrifuged at 100,000 g for 15 minutes at 4° C. Supernatants were harvested and 20 μg of protein was analyzed by western blotting using monoclonal anticytochrome c antibody. For in vitro analysis of cytochrome c release, heavy membranes enriched in mitochondria were isolated from BMK-D3 cells using a mitochondria fractionation kit (Active Motif) according to the instructions of the manufacturer. Isolated mitochondria were diluted to a concentration of 1 mg/ml in the extraction buffer and incubated with synthetic ATAP or mHR7 peptides (100 μM) or DMSO as control for 1 hour at 37° C. The reactions were then centrifuged at 13,000 g for 10 minutes and the resulting pellets and supernatants were analyzed by SDS-PAGE.

[2] = planar lipid bilayer reconstitution, electrophysiology
Protocol: The 29-mer ATAP peptide ([…]) (SEQ ID NO.: 36) corresponding to the C-terminus of Bfl1 and its mutant mHR7 (KFEP-KSGWMTFLQVTG-LICQMLSLLKQYC) (SEQ ID NO.: 50) were synthesized by Abgent (San Diego, Calif.) with 99% purity as measured by HPLC and mass spectrometry. The peptides were dissolved in DMSO to make a 10 mM stock. Phospholipids were purchased from Avanti Polar Lipids (Birmingham, Ala.). Electrophysiological analysis was performed as described (Lam et al., 1998; Ma et al., 1988). Lipid bilayer membranes were formed across an aperture of 200 μm diameter with a 1:1 mixture of bovine brain phosphatidylethanolamine and bovine brain phosphatidylserine dissolved in n-decane at a concentration of 50 mg/ml. The recording solutions contained: cis, 200 mM KCl and 10 mM HEPES-Tris (pH 7.4); trans, 50 mM NaCl, 10 mM HEPES-Tris (pH 7.4). 1 n1 of 10 mM peptides dissolved in DMSO were added into 900 n1 of cis solution and fused into the bilayer. Voltage manipulation and currents were measured using an Axopatch 200 A amplifier (Axon Instruments, Foster City, Calif.). Data analyses were preformed with pClamp and TIPS software.

HEK293 cells [3] = assay: cell death by propidium iodide (PI) staining / exclusion after transfection; type: cell-based; settings: HEK293, 24 h after transfection
Protocol: (§1) Apoptotic cell death was monitored after transfection of expression plasmids into HEK293, HeLa, MCF-7 or BMK D3 cells. 2×10^5 cells were cultured in 35-mm wells for 24 hours in Dulbecco's modified Eagle's medium (DMEM) supplemented with 10% fetal bovine serum. Cells were transfected using the Lipofectamine 2000 reagent (Invitrogen), with 1 μg of the indicated expression plasmids and further cultured in the absence or presence of 50 μM of pan-caspase inhibitor, Q-VD-OPH (OPH, Enzyme Systems Products). For morphological assessment of apoptotic cell death, cells were plated onto LabTek II chamber slides (Nalgen Nunc International) at densities of 5×10^4 cells per well. 24 hours after transfection, cells were washed with phosphate-buffered saline (PBS) prior to fixation with 4% formaldehyde. […] Cell death was also measured by propidium iodide (PI) exclusion. […] Cells were observed and photographed with a fluorescence microscope at three different fields containing approximately 200 GFP-positive cells. GFP and PI double-positive cells were counted as dead cells. Quantitative analysis of cell viability was determined by _-galactosidase reporter assay according to the procedures as described (Chittenden et al., 1995; Wood and Newcomb, 2000). […] At 24 hours following transfection, cells were harvested and β-galactosidase activity was measured using β-Galactosidase Enzyme Assay System (Promega). […]

HEK293 cells [4] = assay: β-galactosidase reporter assay of cell viability after co-transfection; type: cell-based; settings: HEK293, 24 h after co-transfection, n=5
Protocol: as §1

In the case of “KFEPKSGWMTFLEVTGKICEMLSLLKQYC ((1)..(29) ATAP peptide derived from residues 147-175 of Bfl-1; listed as Homo sapiens) [29-mer amphipathic tail-anchoring peptide corresponding to the C-terminus of Bfl1 (a.a. 147-175)]”, the “toxicity of expression in E. coli” value (E. coli) is reported as “lysis of the cells”, the “toxicity of expression in E. coli” value (E. coli; listed as Bfl-1 TA peptide) is reported as “toxic to E. coli cell growth” and the “cytochrome c release from isolated mitochondria” value [1] is reported as “induced release of cytochrome c”. For the same molecule, the “reversal potential for currents” value ([2]; 200 mM KCl (cis) / 50 mM NaCl (trans)) was ~−30 mV and the “rupture of the lipid bilayer, time after addition of the peptide” value ([2]; peptide >22.2 μM, n>30) was ≤ 30 min.

In the case of “KFEP-KSGWMTFLQVTG-LICQMLSLLKQYC (KFEPKSGWMTFLEVTGLICEMLSLLKQYC; (1)..(29) K163L - ATAP; listed as Homo sapiens) [mHR7 peptide, synthetic mutant of the 29-mer ATAP peptide]”, the “cytochrome c release from isolated mitochondria” value [1] is reported as “not observed” and the “changes in membrane conductance” value ([2]; peptide 11-44 μM, n=35) is reported as “did not induce any notable changes in membrane conductance”.

B1: FLAG-Bfl-1: FLAG-tagged full-length Bfl-1 (protein, UniProt Q16548 1-175, looked up)
chain: MTDCEFGYIYRLAQDYLQCVLQIPQPGSGPSKTSRVLQNVAFSVQKEVEKNLKSCLDNVNVVSVDTARTLFNQVMEKEFEDGIINWGRIVTIFAFEGILIKKLLRQQIAPDVDTYKEISYFVAEFIMNNTGEWIRQNGGWENGFVKKFEPKSGWMTFLEVTGKICEMLSLLKQYC
modifications: full-length FLAG tag
In the case of B1, the “cell death by PI staining” value (HEK293 cells [3]) is reported as “no toxic effect” and the β-galactosidase activity (HEK293 cells [4]) is reported as 1.11±0.06 fold over control.
